Where two headings read alike, the source gives them in different places.
Columns and labels:
Nav 1.7 = Nav 1.7 (Homo sapiens (Human), UniProt Q15858); test: Inhibition of sodium channels, Red Membrane Potential Dye FLIPR assay, veratridine depolarization; assay type: cell-based; conditions: HEK-293 cells overexpressing the channel; for IC50: read-out: Nav1.7 IC50
Nav 1.5 = Nav 1.5 (Homo sapiens (Human), UniProt Q14524); test: as above; assay type: cell-based; conditions: HEK-293 cells overexpressing the channel; for inhibition at 10 µM: HEK-293 cells overexpressing Nav 1.5
[1] = read-out: Nav1.5 IC50 (bound given in μM)

Chain of Nav 1.5 (Q14524 whole entry): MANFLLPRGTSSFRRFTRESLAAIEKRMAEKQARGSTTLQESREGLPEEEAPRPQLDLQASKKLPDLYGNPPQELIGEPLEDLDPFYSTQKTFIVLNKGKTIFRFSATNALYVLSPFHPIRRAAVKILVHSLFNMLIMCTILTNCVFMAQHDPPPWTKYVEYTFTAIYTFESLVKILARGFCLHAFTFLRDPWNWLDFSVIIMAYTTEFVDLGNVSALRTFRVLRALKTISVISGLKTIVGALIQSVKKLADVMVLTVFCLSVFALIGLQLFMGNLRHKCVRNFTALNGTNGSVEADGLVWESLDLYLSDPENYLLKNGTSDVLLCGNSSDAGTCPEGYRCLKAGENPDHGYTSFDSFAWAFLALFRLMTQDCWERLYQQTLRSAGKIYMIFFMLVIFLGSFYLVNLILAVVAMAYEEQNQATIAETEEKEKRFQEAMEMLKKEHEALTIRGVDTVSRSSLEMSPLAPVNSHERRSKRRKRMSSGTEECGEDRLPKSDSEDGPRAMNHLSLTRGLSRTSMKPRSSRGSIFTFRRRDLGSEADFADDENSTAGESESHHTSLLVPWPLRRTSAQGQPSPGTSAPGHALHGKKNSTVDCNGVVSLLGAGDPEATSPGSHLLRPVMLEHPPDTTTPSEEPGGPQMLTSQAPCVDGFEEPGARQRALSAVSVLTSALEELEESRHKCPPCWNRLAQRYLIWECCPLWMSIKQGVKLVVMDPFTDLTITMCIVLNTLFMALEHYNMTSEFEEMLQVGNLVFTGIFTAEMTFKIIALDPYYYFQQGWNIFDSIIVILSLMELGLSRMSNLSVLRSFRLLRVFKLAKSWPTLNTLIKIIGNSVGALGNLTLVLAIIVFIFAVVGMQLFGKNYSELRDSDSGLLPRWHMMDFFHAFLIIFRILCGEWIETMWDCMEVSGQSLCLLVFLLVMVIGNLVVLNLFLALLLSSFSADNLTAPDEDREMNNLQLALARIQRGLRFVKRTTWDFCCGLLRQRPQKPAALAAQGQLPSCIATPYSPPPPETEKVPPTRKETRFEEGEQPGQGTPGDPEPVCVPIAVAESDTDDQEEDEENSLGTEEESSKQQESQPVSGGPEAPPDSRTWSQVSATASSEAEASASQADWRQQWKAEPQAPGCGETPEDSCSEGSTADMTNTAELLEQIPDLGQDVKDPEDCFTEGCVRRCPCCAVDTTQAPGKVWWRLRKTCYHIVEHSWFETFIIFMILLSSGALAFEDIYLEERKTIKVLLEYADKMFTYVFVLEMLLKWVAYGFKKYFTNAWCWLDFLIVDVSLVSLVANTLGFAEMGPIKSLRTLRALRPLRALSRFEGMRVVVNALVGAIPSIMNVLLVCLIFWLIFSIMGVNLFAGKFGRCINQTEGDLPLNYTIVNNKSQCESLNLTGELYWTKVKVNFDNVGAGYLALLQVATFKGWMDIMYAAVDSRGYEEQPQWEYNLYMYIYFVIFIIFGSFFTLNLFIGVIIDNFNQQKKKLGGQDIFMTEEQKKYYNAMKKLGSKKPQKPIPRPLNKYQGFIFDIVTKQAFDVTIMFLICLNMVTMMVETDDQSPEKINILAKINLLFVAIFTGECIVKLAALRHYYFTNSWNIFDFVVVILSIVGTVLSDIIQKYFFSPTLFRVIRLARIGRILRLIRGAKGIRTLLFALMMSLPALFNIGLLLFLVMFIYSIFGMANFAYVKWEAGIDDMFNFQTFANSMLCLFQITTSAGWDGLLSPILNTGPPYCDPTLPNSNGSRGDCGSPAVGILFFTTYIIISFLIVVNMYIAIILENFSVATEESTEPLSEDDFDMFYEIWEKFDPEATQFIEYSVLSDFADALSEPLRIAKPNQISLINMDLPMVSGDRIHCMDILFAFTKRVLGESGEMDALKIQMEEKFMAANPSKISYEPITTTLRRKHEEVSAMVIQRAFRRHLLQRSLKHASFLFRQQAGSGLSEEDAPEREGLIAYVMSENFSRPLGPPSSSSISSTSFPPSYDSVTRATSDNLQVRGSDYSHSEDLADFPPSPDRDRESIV
Chain of Nav 1.7 (Q15858 whole entry): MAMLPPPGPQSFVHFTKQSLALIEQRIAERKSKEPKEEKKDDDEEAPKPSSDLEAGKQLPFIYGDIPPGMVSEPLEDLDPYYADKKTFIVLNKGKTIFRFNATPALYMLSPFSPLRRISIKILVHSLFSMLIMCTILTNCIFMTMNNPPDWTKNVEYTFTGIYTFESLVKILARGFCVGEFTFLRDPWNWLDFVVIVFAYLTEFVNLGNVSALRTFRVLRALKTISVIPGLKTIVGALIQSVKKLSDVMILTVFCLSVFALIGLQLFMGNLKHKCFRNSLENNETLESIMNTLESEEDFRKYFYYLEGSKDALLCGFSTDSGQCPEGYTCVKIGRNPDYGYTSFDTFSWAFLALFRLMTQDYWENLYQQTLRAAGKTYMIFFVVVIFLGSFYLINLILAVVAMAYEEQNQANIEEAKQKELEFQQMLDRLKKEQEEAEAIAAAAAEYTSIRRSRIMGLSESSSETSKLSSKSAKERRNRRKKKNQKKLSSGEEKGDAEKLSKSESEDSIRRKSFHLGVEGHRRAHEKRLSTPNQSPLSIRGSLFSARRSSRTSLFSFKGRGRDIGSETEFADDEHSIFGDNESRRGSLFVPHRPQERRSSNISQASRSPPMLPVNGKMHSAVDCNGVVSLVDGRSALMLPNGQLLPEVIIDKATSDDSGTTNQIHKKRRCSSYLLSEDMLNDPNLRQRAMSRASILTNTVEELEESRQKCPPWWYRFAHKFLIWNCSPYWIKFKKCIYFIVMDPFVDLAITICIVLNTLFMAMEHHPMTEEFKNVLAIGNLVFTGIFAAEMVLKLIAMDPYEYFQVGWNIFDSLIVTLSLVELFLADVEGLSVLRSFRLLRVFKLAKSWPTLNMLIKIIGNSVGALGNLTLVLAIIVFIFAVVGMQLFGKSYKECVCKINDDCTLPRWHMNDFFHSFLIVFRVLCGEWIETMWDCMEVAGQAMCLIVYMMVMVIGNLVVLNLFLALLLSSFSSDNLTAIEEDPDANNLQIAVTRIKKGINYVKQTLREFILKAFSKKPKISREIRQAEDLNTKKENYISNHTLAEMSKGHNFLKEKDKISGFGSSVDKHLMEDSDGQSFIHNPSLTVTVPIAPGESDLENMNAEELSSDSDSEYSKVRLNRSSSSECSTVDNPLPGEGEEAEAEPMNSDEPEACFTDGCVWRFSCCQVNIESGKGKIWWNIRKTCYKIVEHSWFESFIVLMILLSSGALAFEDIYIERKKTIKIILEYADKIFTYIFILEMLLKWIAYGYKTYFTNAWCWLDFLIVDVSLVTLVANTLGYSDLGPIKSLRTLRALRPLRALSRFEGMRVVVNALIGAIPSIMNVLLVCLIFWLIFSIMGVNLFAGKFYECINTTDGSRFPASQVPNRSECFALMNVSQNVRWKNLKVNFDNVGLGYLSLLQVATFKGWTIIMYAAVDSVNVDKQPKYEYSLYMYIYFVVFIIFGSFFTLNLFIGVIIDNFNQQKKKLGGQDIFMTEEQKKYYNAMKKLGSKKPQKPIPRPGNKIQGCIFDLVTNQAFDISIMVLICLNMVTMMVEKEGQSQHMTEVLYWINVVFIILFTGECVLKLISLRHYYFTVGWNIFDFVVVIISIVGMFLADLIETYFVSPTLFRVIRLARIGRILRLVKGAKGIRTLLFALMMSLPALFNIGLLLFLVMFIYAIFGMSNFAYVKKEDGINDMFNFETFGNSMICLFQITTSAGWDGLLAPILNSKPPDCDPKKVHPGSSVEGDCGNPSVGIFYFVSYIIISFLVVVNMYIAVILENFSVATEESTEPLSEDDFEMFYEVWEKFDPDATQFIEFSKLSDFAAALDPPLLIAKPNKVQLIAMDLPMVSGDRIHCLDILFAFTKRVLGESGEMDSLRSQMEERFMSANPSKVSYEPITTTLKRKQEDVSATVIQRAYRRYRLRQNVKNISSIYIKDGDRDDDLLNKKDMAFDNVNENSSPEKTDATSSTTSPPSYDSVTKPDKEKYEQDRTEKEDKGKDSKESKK

With `O=S(=O)(Nc1ncc(F)cn1)c1ccc2c(c1)OCC[C@@H]2c1ccc(C(F)(F)F)cc1OC1COC1` (racemic) [Example-218, (S/R)—N-(5-fluoropyrimidin-2-yl)-4-(2-(oxetan-3-yloxy)-4-(trifluoromethyl)phenyl)chroman-7-sulfonamide] the IC50 (Nav 1.7) was 43 nM and the IC50 (Nav 1.5; [1]) was > 10 µM.

`O=S(=O)(Nc1cccc(F)n1)c1ccc2c(c1)OCC[C@@H]2c1ccc(C(F)(F)F)cc1OC1COC1` (racemic) [Example-219, (S/R)—N-(6-fluoropyridin-2-yl)-4-(2-(oxetan-3-yloxy)-4-(trifluoromethyl)phenyl)chromane-7-sulfonamide] gave an IC50 (Nav 1.7) of 34 nM and an inhibition at 10 µM (Nav 1.5) of 40%.

In the case of `Cc1nc(-c2cc(C(F)(F)F)ccc2[C@H]2CCOc3cc(S(=O)(=O)Nc4ncccn4)ccc32)ccc1F` (racemic) [Example-222, (R/S)-4-(2-(5-fluoro-6-methylpyridin-2-yl)-4-(trifluoromethyl)phenyl)-N-(pyrimidin-2-yl)chroman-7-sulfonamide], the IC50 (Nav 1.7) is reported as 63 nM and the inhibition at 10 µM (Nav 1.5) is reported as 73%.

Work on `Cc1nc(-c2cc(C(F)(F)F)ccc2[C@H]2CCOc3cc(S(=O)(=O)Nc4ncc(F)cn4)ccc32)ccc1F` (racemic) [Example-223, (R/S)-4-(2-(5-fluoro-6-methylpyridin-2-yl)-4-(trifluoromethyl)phenyl)-N-(5-fluoropyrimidin-2-yl)chroman-7-sulfonamide] yielded an IC50 (Nav 1.7) of 82 nM and an inhibition at 10 µM (Nav 1.5) of 33%.

For `Cc1nc(-c2cc(C(F)(F)F)ccc2[C@H]2CCOc3cc(S(=O)(=O)Nc4cccnn4)ccc32)ccc1F` (racemic) [Example-224, (R/S)-4-(2-(5-fluoro-6-methylpyridin-2-yl)-4-(trifluoromethyl)phenyl)-N-(pyridazin-3-yl)chroman-7-sulfonamide], the IC50 (Nav 1.7) was 51 nM and the IC50 (Nav 1.5; read-out: Nav1.5 IC50) was 2.12 µM.

`Cc1nc(-c2cc(C(F)(F)F)ccc2[C@H]2CCOc3cc(S(=O)(=O)Nc4cccc(F)n4)ccc32)ccc1F` (racemic) [Example-225, (R/S)-4-(2-(5-fluoro-6-methylpyridin-2-yl)-4-(trifluoromethyl)phenyl)-N-(6-fluoropyridin-2-yl)chroman-7-sulfonamide] was tested, and the IC50 (Nav 1.7) was 12 nM and the IC50 (Nav 1.5; read-out: Nav1.5 IC50) was 1.5 µM.

`O=S1(=O)CCN(c2cc(C(F)(F)F)ccc2[C@H]2CCOc3cc(S(=O)(=O)Nc4cccnn4)ccc32)CC1` (racemic) [Example-236, (R/S)-4-(2-(1,1-dioxidothiomorpholino)-4-(trifluoromethyl)phenyl)-N-(pyridazin-3-yl)chroman-7-sulfonamide] was tested, and the IC50 (Nav 1.7) was 113 nM and the IC50 (Nav 1.5; [1]) was > 10 µM.

`Cc1ccc(-c2cc(C(F)(F)F)ccc2[C@H]2CCOc3cc(S(=O)(=O)Nc4cccnn4)ccc32)cn1` (stereo in doubt) [Example-205, (R/S)-4-(2-(6-methylpyridin-3-yl)-4-(trifluoromethyl)phenyl)-N-(pyridazin-3-yl)chroman-7-sulfonamide] was tested, and the IC50 (Nav 1.7) was 8 nM and the IC50 (Nav 1.5; read-out: Nav1.5 IC50) was 0.25 µM.

`Cn1nccc1-c1cc(C(F)(F)F)ccc1[C@@H]1CCOc2cc(S(=O)(=O)Nc3cnccn3)ccc21` [Example 11, (S&R)-4-(2-(1-Methyl-1H-pyrazol-5-yl)-4-(trifluoromethyl)phenyl)-N-(pyrazin-2-yl) chromane-7-sulfonamide] was tested, and the “Nav1.7 inhibition @ 10 μM” value (Nav 1.7) was 96% and the IC50 (Nav 1.5; [1]) was > 10 µM.

With `Cn1nccc1-c1cc(C(F)(F)F)ccc1[C@@H]1CCOc2cc(S(=O)(=O)Nc3ncccc3F)ccc21` [Example 17, (S&R)—N-(3-Fluoropyridin-2-yl)-4-(2-(1-methyl-1H-pyrazol-5-yl)-4-(trifluoromethyl)phenyl)chromane-7-sulfonamide] the “Nav1.7 inhibition @ 10 μM” value (Nav 1.7) was 96% and the IC50 (Nav 1.5; [1]) was > 10 µM.

With `Cn1nccc1-c1cc(C(F)(F)F)ccc1[C@H]1CCOc2cc(S(=O)(=O)Nc3ncccc3F)ccc21` [Example 18, (S&R)—N-(3-Fluoropyridin-2-yl)-4-(2-(1-methyl-1H-pyrazol-5-yl)-4-(trifluoromethyl)phenyl)chromane-7-sulfonamide] the IC50 (Nav 1.7) was 759 nM and the IC50 (Nav 1.5; [1]) was > 10 µM.

`Cc1cccc(NS(=O)(=O)c2ccc3c(c2)OCC[C@H]3c2ccc(C(F)(F)F)cc2-c2ccnn2C)n1` [Example 19, (S&R)-4-(2-(1-methyl-1H-pyrazol-5-yl)-4-(trifluoromethyl)phenyl)-N-(6-methylpyridin-2-yl)chroman-7-sulfonamide] was tested, and the IC50 (Nav 1.7) was 1010 nM and the IC50 (Nav 1.5; [1]) was > 10 µM.

With `Cc1ccc(NS(=O)(=O)c2ccc3c(c2)OCC[C@H]3c2ccc(C(F)(F)F)cc2-c2ccnn2C)nc1` [Example 21, (S&R)-4-(2-(1-methyl-1H-pyrazol-5-yl)-4-(trifluoromethyl)phenyl)-N-(5-methylpyridin-2-yl)chroman-7-sulfonamide] the IC50 (Nav 1.7) was 4270 nM and the “Nav1.5 % inhibition @ 10 μM” value (Nav 1.5) was 57%.

For `Cc1ccc(NS(=O)(=O)c2ccc3c(c2)OCC[C@@H]3c2ccc(C(F)(F)F)cc2-c2ccnn2C)nc1` [Example 22, (S&R)-4-(2-(1-methyl-1H-pyrazol-5-yl)-4-(trifluoromethyl)phenyl)-N-(5-methylpyridin-2-yl)chroman-7-sulfonamide], the IC50 (Nav 1.7) was 2060 nM and the “Nav1.5 % inhibition @ 10 μM” value (Nav 1.5) was 74%.

With `Cc1ccnc(NS(=O)(=O)c2ccc3c(c2)OCC[C@H]3c2ccc(C(F)(F)F)cc2-c2ccnn2C)c1` [Example 23, (S&R)-4-(2-(1-methyl-1H-pyrazol-5-yl)-4-(trifluoromethyl)phenyl)-N-(4-methylpyridin-2-yl)chroman-7-sulfonamide] the IC50 (Nav 1.7) was 3690 nM and the “Nav1.5 % inhibition @ 10 μM” value (Nav 1.5) was 59%.

With `Cc1ccnc(NS(=O)(=O)c2ccc3c(c2)OCC[C@@H]3c2ccc(C(F)(F)F)cc2-c2ccnn2C)c1` [Example 24, (S&R)-4-(2-(1-methyl-1H-pyrazol-5-yl)-4-(trifluoromethyl)phenyl)-N-(4-methylpyridin-2-yl)chroman-7-sulfonamide] the IC50 (Nav 1.7) was 816 nM and the IC50 (Nav 1.5; read-out: Nav1.5 IC50) was 3.92 µM.

For `CC(C)Oc1cccc(NS(=O)(=O)c2ccc3c(c2)OCC[C@H]3c2ccc(C(F)(F)F)cc2-c2ccnn2C)n1` [Example 25, (S&R)—N-(6-isopropoxypyridin-2-yl)-4-(2-(1-methyl-1H-pyrazol-5-yl)-4-(trifluoromethyl)phenyl)chroman-7-sulfonamide], the IC50 (Nav 1.7) was 221 nM and the IC50 (Nav 1.5; [1]) was > 10 µM.

`CC(C)Oc1cccc(NS(=O)(=O)c2ccc3c(c2)OCC[C@@H]3c2ccc(C(F)(F)F)cc2-c2ccnn2C)n1` [Example 26, (S&R)—N-(6-isopropoxypyridin-2-yl)-4-(2-(1-methyl-1H-pyrazol-5-yl)-4-(trifluoromethyl)phenyl)chroman-7-sulfonamide] was tested, and the IC50 (Nav 1.7) was 685 nM and the IC50 (Nav 1.5; [1]) was > 10 µM.

In the case of `Cn1nccc1-c1cc(C(F)(F)F)ccc1[C@@H]1CCOc2cc(S(=O)(=O)Nc3cccnc3F)ccc21` [Example 27, (S&R)—N-(2-fluoropyridin-3-yl)-4-(2-(1-methyl-1H-pyrazol-5-yl)-4-(trifluoromethyl)phenyl)chroman-7-sulfonamide], the “Nav1.7 inhibition @ 10 μM” value (Nav 1.7) is reported as 80% and the IC50 (Nav 1.5; [1]) is reported as > 10 µM.

For `Cn1nccc1-c1cc(C(F)(F)F)ccc1[C@H]1CCOc2cc(S(=O)(=O)Nc3cccnc3F)ccc21` [Example 28, (S&R)—N-(2-fluoropyridin-3-yl)-4-(2-(1-methyl-1H-pyrazol-5-yl)-4-(trifluoromethyl)phenyl)chroman-7-sulfonamide], the IC50 (Nav 1.7) was 1570 nM and the IC50 (Nav 1.5; [1]) was > 10 µM.

With `Cc1ccnc(NS(=O)(=O)c2ccc3c(c2)OCC[C@H]3c2ccc(C(F)(F)F)cc2-c2ccnn2C)n1` [Example 29, (S&R)-4-(2-(1-methyl-1H-pyrazol-5-yl)-4-(trifluoromethyl)phenyl)-N-(4-methylpyrimidin-2-yl)chroman-7-sulfonamide] the “Nav1.7 inhibition @ 10 μM” value (Nav 1.7) was 91% and the IC50 (Nav 1.5; [1]) was > 10 µM.

With `Cc1ccnc(NS(=O)(=O)c2ccc3c(c2)OCC[C@@H]3c2ccc(C(F)(F)F)cc2-c2ccnn2C)n1` [Example 30, (S&R)-4-(2-(1-methyl-1H-pyrazol-5-yl)-4-(trifluoromethyl)phenyl)-N-(4-methylpyrimidin-2-yl)chroman-7-sulfonamide] the “Nav1.7 inhibition @ 10 μM” value (Nav 1.7) was 72% and the IC50 (Nav 1.5; [1]) was > 10 µM.

`Cn1nccc1-c1cc(Cl)ccc1[C@@H]1CCOc2cc(S(=O)(=O)Nc3cccc(F)n3)ccc21` [Example 31, (S&R)-4-(4-chloro-2-(1-methyl-1H-pyrazol-5-yl)phenyl)-N-(6-fluoropyridin-2-yl)chroman-7-sulfonamide] was tested, and the IC50 (Nav 1.7) was 2050 nM and the IC50 (Nav 1.5; [1]) was > 10 µM.

`Cn1nccc1-c1cc(Cl)ccc1[C@H]1CCOc2cc(S(=O)(=O)Nc3cccc(F)n3)ccc21` [Example 32, (S&R)-4-(4-chloro-2-(1-methyl-1H-pyrazol-5-yl)phenyl)-N-(6-fluoropyridin-2-yl)chroman-7-sulfonamide] was tested, and the IC50 (Nav 1.7) was 151 nM and the IC50 (Nav 1.5; [1]) was > 10 µM.

With `CC(C)Oc1ccc([C@@H]2CCOc3cc(S(=O)(=O)Nc4cccc(F)n4)ccc32)c(-c2ccnn2C)c1` [Example 33, (S&R)—N-(6-fluoropyridin-2-yl)-4-(4-isopropoxy-2-(1-methyl-1H-pyrazol-5-yl)phenyl)chroman-7-sulfonamide] the IC50 (Nav 1.7) was 514 nM and the IC50 (Nav 1.5; [1]) was > 10 µM.

In the case of `CC(C)Oc1ccc([C@H]2CCOc3cc(S(=O)(=O)Nc4cccc(F)n4)ccc32)c(-c2ccnn2C)c1` [Example 34, (S&R)—N-(6-fluoropyridin-2-yl)-4-(4-isopropoxy-2-(1-methyl-1H-pyrazol-5-yl)phenyl)chroman-7-sulfonamide], the IC50 (Nav 1.7) is reported as 57 nM and the IC50 (Nav 1.5; [1]) is reported as > 10 µM.

For `O=S(=O)(Nc1cccnn1)c1ccc2c(c1)OCC[C@H]2c1ccc(C(F)(F)F)cc1-c1ccc(F)nc1` [Example 41, (S&R)-4-(2-(6-Fluoropyridin-3-yl)-4-(trifluoromethyl)phenyl)-N-(pyridazin-3-yl)chromane-7-sulfonamide], the IC50 (Nav 1.7) was 622 nM and the IC50 (Nav 1.5; [1]) was > 10 µM.

`O=S(=O)(Nc1cccnn1)c1ccc2c(c1)OCC[C@@H]2c1ccc(C(F)(F)F)cc1-c1ccc(F)nc1` [Example 42, (S&R)-4-(2-(6-Fluoropyridin-3-yl)-4-(trifluoromethyl)phenyl)-N-(pyridazin-3-yl)chromane-7-sulfonamide] was tested, and the IC50 (Nav 1.7) was 0.2 nM and the IC50 (Nav 1.5; read-out: Nav1.5 IC50) was 0.644 µM.
